Reference: the NIST ThermoML archive (doi:10.1021/acs.jced.7b01101)
± gives the expanded uncertainty stated by the source.

Key:
[1] = 100 kPa, Liquid; for viscosity: Concentric cylinders viscometry
[2] = refractive index (Na D-line) (dimensionless); conditions: 293.15 K; 100 kPa; Liquid; Standard Abbe refractometry
[3] = an = ratio of the nth substance listed; conditions: 100 kPa, Liquid; for electrical conductivity: 293.15 K, Alternating current cell with electrodes; for viscosity / mass density: 298.15 K; for viscosity: Concentric cylinders viscometry; for mass density: Vibrating tube method
[4] = wn = mass fraction of the nth substance listed; conditions: 100 kPa, Liquid; for electrical conductivity: 293.15 K, Alternating current cell with electrodes; for viscosity / mass density: 298.15 K; for viscosity: Concentric cylinders viscometry; for mass density: Vibrating tube method
[5] = refractive index (Na D-line) (dimensionless); an = ratio of the nth substance listed; conditions: 293.15 K, 100 kPa, Liquid, Standard Abbe refractometry
[6] = refractive index (Na D-line) (dimensionless); wn = mass fraction of the nth substance listed; conditions: 293.15 K, 100 kPa, Liquid, Standard Abbe refractometry

Structure (SMILES): NCCO [2-aminoethan-1-ol]
- electrical conductivity ([1]; 293.15 K, Alternating current cell with electrodes): 0.0031 ± 0.0003 S/m
- viscosity ([1]; 298.15 K): 18.75 ± 2.8 mPa·s
- mass density ([1]; 298.15 K, Vibrating tube method): 1012 ± 1 kg/m3
- refractive index [2]: 1.456 ± 0.002

Structure (SMILES): NCCO [2-aminoethan-1-ol] + O
- electrical conductivity ([3]; a2 = 1.5): 0.046 ± 0.005 S/m
- electrical conductivity ([3]; a2 = 2.333): 0.072 ± 0.007 S/m
- electrical conductivity ([3]; a2 = 4): 0.102 ± 0.01 S/m
- viscosity ([3]; a2 = 1.5): 3.5 ± 0.53 mPa·s
- viscosity ([3]; a2 = 2.333): 2.6 ± 0.39 mPa·s
- viscosity ([3]; a2 = 4): 1.7 ± 0.26 mPa·s
- mass density ([3]; a2 = 1.5): 1018.3 ± 1 kg/m3
- mass density ([3]; a2 = 2.333): 1012.9 ± 1 kg/m3
- mass density ([3]; a2 = 4): 1007.1 ± 1 kg/m3
- electrical conductivity ([4]; w1 = 0.2): 0.102 ± 0.012 S/m
- electrical conductivity ([4]; w1 = 0.3): 0.072 ± 0.0091 S/m
- electrical conductivity ([4]; w1 = 0.4): 0.0461 ± 0.0063 S/m
- electrical conductivity ([4]; w1 = 0.5): 0.029 ± 0.0045 S/m
- electrical conductivity ([4]; w1 = 0.6): 0.0111 ± 0.0023 S/m
- electrical conductivity ([4]; w1 = 0.7): 0.0089 ± 0.0012 S/m
- electrical conductivity ([4]; w1 = 0.8): 0.0034 ± 0.0007 S/m
- electrical conductivity ([4]; w1 = 0.9): 0.0032 ± 0.0003 S/m
- electrical conductivity ([4]; w1 = 1): 0.0031 ± 0.0003 S/m
- viscosity ([4]; w1 = 0.2): 1.7 ± 0.28 mPa·s
- viscosity ([4]; w1 = 0.3): 2.6 ± 0.43 mPa·s
- viscosity ([4]; w1 = 0.4): 3.5 ± 0.6 mPa·s
- viscosity ([4]; w1 = 0.5): 5.4 ± 1 mPa·s
- viscosity ([4]; w1 = 0.6): 9.67 ± 1.6 mPa·s
- viscosity ([4]; w1 = 0.7): 12.26 ± 2.1 mPa·s
- viscosity ([4]; w1 = 0.8): 20.39 ± 3.1 mPa·s
- viscosity ([4]; w1 = 0.9): 19.45 ± 2.9 mPa·s
- viscosity ([4]; w1 = 1): 18.75 ± 2.8 mPa·s
- mass density ([4]; w1 = 0.2): 1007.1 ± 1.5 kg/m3
- mass density ([4]; w1 = 0.3): 1012.9 ± 1.5 kg/m3
- mass density ([4]; w1 = 0.4): 1018.3 ± 1.4 kg/m3
- mass density ([4]; w1 = 0.5): 1022.1 ± 1.2 kg/m3
- mass density ([4]; w1 = 0.6): 1025.1 ± 1.1 kg/m3
- mass density ([4]; w1 = 0.7): 1026.5 ± 1 kg/m3
- mass density ([4]; w1 = 0.8): 1024.7 ± 1.2 kg/m3
- mass density ([4]; w1 = 0.9): 1020.4 ± 1.6 kg/m3
- mass density ([4]; w1 = 1): 1012 ± 1 kg/m3
- refractive index ([5]; a2 = 1.5): 1.3854 ± 0.002
- refractive index ([5]; a2 = 2.333): 1.372 ± 0.002
- refractive index ([5]; a2 = 4): 1.3587 ± 0.002
- refractive index ([6]; w1 = 0.2): 1.3587 ± 0.0033
- refractive index ([6]; w1 = 0.3): 1.3718 ± 0.0033
- refractive index ([6]; w1 = 0.4): 1.3852 ± 0.0033
- refractive index ([6]; w1 = 0.5): 1.3975 ± 0.0034
- refractive index ([6]; w1 = 0.6): 1.4126 ± 0.0033
- refractive index ([6]; w1 = 0.7): 1.423 ± 0.0032
- refractive index ([6]; w1 = 0.8): 1.4368 ± 0.0029
- refractive index ([6]; w1 = 0.9): 1.4444 ± 0.0028
- refractive index ([6]; w1 = 1): 1.456 ± 0.002

Structure (SMILES): O [water]
- viscosity ([1]; 298.15 K): 0.89 ± 0.13 mPa·s
- refractive index [2]: 1.333 ± 0.002

Structure (SMILES): O [water] + NCCO
- viscosity ([4]; w2 = 0): 0.89 ± 0.13 mPa·s
- refractive index ([6]; w2 = 0): 1.333 ± 0.002
